Test results from PubChem BioAssay (NCI).
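Following 48 hours of exposure in 96-well plates, responses at five concentrations were used to interpolate endpoints linearly. The concentration for 50% growth inhibition is given as GI50. TGI denotes the concentration required for complete inhibition of growth.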

What was measured:
Assay in all cases: inhibition of tumour cell growth, NCI panel, 48 h
SK-MEL-5 melanoma = system: SK-MEL-5 melanoma
SNB-19 CNS = system: SNB-19 CNS
COLO 205 colon = system: COLO 205 colon
SK-MEL-2 melanoma = system: SK-MEL-2 melanoma
MDA-MB-231 breast = system: MDA-MB-231 breast
IGROV1 ovarian = system: IGROV1 ovarian
HS 578T breast = system: HS 578T breast
M14 melanoma = system: M14 melanoma
UO-31 renal = system: UO-31 renal
SNB-75 CNS = system: SNB-75 CNS
RXF 393 renal = system: RXF 393 renal
HT29 colon = system: HT29 colon
NCI-H460 lung = system: NCI-H460 lung
SR leukemia = system: SR leukemia
HCT-15 colon = system: HCT-15 colon
NCI/ADR-RES ovarian = system: NCI/ADR-RES ovarian
NCI-H226 lung = system: NCI-H226 lung
OVCAR-5 ovarian = system: OVCAR-5 ovarian
SN12C renal = system: SN12C renal
HCC-2998 colon = system: HCC-2998 colon
HOP-92 NSCLC = system: HOP-92 NSCLC
T-47D breast = system: T-47D breast
HOP-62 NSCLC = system: HOP-62 NSCLC
HL-60(TB) leukemia = system: HL-60(TB) leukemia
U251 CNS = system: U251 CNS
ACHN renal = system: ACHN renal
SK-MEL-28 melanoma = system: SK-MEL-28 melanoma
PC-3 prostate = system: PC-3 prostate
SF-539 CNS = system: SF-539 CNS
OVCAR-4 ovarian = system: OVCAR-4 ovarian
SK-OV-3 ovarian = system: SK-OV-3 ovarian
MOLT-4 leukemia = system: MOLT-4 leukemia
DU-145 prostate = system: DU-145 prostate
SF-268 CNS = system: SF-268 CNS
EKVX NSCLC = system: EKVX NSCLC
KM12 colon = system: KM12 colon
SW-620 colon = system: SW-620 colon
MCF7 breast = system: MCF7 breast
MALME-3M melanoma = system: MALME-3M melanoma
786-0 renal = system: 786-0 renal
A498 renal = system: A498 renal
RPMI-8226 leukemia = system: RPMI-8226 leukemia
SF-295 CNS = system: SF-295 CNS
BT-549 breast = system: BT-549 breast
CAKI-1 renal = system: CAKI-1 renal
HCT-116 colon = system: HCT-116 colon
TK-10 renal = system: TK-10 renal
LOX IMVI melanoma = system: LOX IMVI melanoma
UACC-257 melanoma = system: UACC-257 melanoma
MDA-MB-435 = system: MDA-MB-435
OVCAR-8 ovarian = system: OVCAR-8 ovarian
NCI-H522 lung = system: NCI-H522 lung
OVCAR-3 ovarian = system: OVCAR-3 ovarian
NCI-H23 lung = system: NCI-H23 lung
A549 NSCLC = system: A549 NSCLC
K-562 leukemia = system: K-562 leukemia
UACC-62 melanoma = system: UACC-62 melanoma

Structure (SMILES): CCOc1ccc(S(=O)(=O)/N=C2\C=C(SCC(=O)O)C(=O)c3ccccc32)cc1
- GI50 (SK-MEL-5 melanoma): 1.72 µM
- TGI (SK-MEL-5 melanoma): 3.1 µM
- GI50 (SNB-19 CNS): 3.42 µM
- TGI (SNB-19 CNS): 12.1 µM
- GI50 (COLO 205 colon): 3.68 µM
- TGI (COLO 205 colon): 14 µM
- GI50 (SK-MEL-2 melanoma): 2.62 µM
- TGI (SK-MEL-2 melanoma): 5.8 µM
- GI50 (MDA-MB-231 breast): 2.84 µM
- TGI (MDA-MB-231 breast): 12.2 µM
- GI50 (IGROV1 ovarian): 2.14 µM
- TGI (IGROV1 ovarian): 4.34 µM
- GI50 (HS 578T breast): 2.6 µM
- TGI (HS 578T breast): 6.79 µM
- GI50 (M14 melanoma): 2.72 µM
- TGI (M14 melanoma): 8.12 µM
- GI50 (UO-31 renal): 4.13 µM
- TGI (UO-31 renal): 15.8 µM
- GI50 (SNB-75 CNS): 2.5 µM
- TGI (SNB-75 CNS): 4.96 µM
- GI50 (RXF 393 renal): 1.8 µM
- TGI (RXF 393 renal): 7.23 µM
- GI50 (HT29 colon): 3.21 µM
- TGI (HT29 colon): 13 µM
- GI50 (NCI-H460 lung): 12.4 µM
- TGI (NCI-H460 lung): 28.2 µM
- GI50 (SR leukemia): 0.538 µM
- TGI (SR leukemia): 5.26 µM
- GI50 (HCT-15 colon): 4.77 µM
- TGI (HCT-15 colon): 17.2 µM
- GI50 (NCI/ADR-RES ovarian): 3.26 µM
- TGI (NCI/ADR-RES ovarian): 13.5 µM
- GI50 (NCI-H226 lung): 21.7 µM
- TGI (NCI-H226 lung): 50.6 µM
- GI50 (OVCAR-5 ovarian): 5.5 µM
- TGI (OVCAR-5 ovarian): 25.1 µM
- GI50 (SN12C renal): 2.15 µM
- TGI (SN12C renal): 4.97 µM
- GI50 (HCC-2998 colon): 14.8 µM
- TGI (HCC-2998 colon): 28.2 µM
- GI50 (HOP-92 NSCLC): 2.61 µM
- TGI (HOP-92 NSCLC): 5.21 µM
- GI50 (T-47D breast): 2.72 µM
- TGI (T-47D breast): 7.18 µM
- GI50 (HOP-62 NSCLC): 20.7 µM
- TGI (HOP-62 NSCLC): 44.8 µM
- GI50 (HL-60(TB) leukemia): 2.35 µM
- TGI (HL-60(TB) leukemia): 6.99 µM
- GI50 (U251 CNS): 3.1 µM
- TGI (U251 CNS): 9.23 µM
- GI50 (ACHN renal): 6.8 µM
- TGI (ACHN renal): 20.2 µM
- GI50 (SK-MEL-28 melanoma): 4.74 µM
- TGI (SK-MEL-28 melanoma): 16.3 µM
- GI50 (PC-3 prostate): 2.92 µM
- TGI (PC-3 prostate): 13.1 µM
- GI50 (SF-539 CNS): 2.49 µM
- TGI (SF-539 CNS): 5.39 µM
- GI50 (OVCAR-4 ovarian): 2.16 µM
- TGI (OVCAR-4 ovarian): 6.31 µM
- GI50 (SK-OV-3 ovarian): 15.2 µM
- TGI (SK-OV-3 ovarian): 29.7 µM
- GI50 (MOLT-4 leukemia): 2.38 µM
- TGI (MOLT-4 leukemia): 6.06 µM
- GI50 (DU-145 prostate): 2.04 µM
- TGI (DU-145 prostate): 5.86 µM
- GI50 (SF-268 CNS): 2.95 µM
- TGI (SF-268 CNS): 12.2 µM
- GI50 (EKVX NSCLC): 3.29 µM
- TGI (EKVX NSCLC): 11.3 µM
- GI50 (KM12 colon): 2.8 µM
- TGI (KM12 colon): 10.3 µM
- GI50 (SW-620 colon): 3.31 µM
- TGI (SW-620 colon): 11.1 µM
- GI50 (MCF7 breast): 1.64 µM
- TGI (MCF7 breast): 3.68 µM
- GI50 (MALME-3M melanoma): 2.13 µM
- TGI (MALME-3M melanoma): 3.69 µM
- GI50 (786-0 renal): 17.4 µM
- TGI (786-0 renal): 36 µM
- GI50 (A498 renal): 21.6 µM
- TGI (A498 renal): 37 µM
- GI50 (RPMI-8226 leukemia): 2.05 µM
- TGI (RPMI-8226 leukemia): 13.2 µM
- GI50 (SF-295 CNS): 13 µM
- TGI (SF-295 CNS): 30.2 µM
- GI50 (BT-549 breast): 4.66 µM
- TGI (BT-549 breast): 15 µM
- GI50 (CAKI-1 renal): 7.76 µM
- TGI (CAKI-1 renal): 20.8 µM
- GI50 (HCT-116 colon): 2.67 µM
- TGI (HCT-116 colon): 10.3 µM
- GI50 (TK-10 renal): 26.5 µM
- TGI (TK-10 renal): 56.9 µM
- GI50 (LOX IMVI melanoma): 2.31 µM
- TGI (LOX IMVI melanoma): 10.2 µM
- GI50 (UACC-257 melanoma): 16.1 µM
- TGI (UACC-257 melanoma): 39.3 µM
- GI50 (MDA-MB-435): 1.75 µM
- TGI (MDA-MB-435): 3.63 µM
- GI50 (OVCAR-8 ovarian): 2.82 µM
- TGI (OVCAR-8 ovarian): 10.3 µM
- GI50 (NCI-H522 lung): 2.53 µM
- TGI (NCI-H522 lung): 6.63 µM
- GI50 (OVCAR-3 ovarian): 1.88 µM
- TGI (OVCAR-3 ovarian): 12.2 µM
- GI50 (NCI-H23 lung): 2.81 µM
- TGI (NCI-H23 lung): 14.2 µM
- GI50 (A549 NSCLC): 12.6 µM
- TGI (A549 NSCLC): 34.9 µM
- GI50 (K-562 leukemia): 3.35 µM
- TGI (K-562 leukemia): 10.6 µM
- GI50 (UACC-62 melanoma): 1.99 µM
- TGI (UACC-62 melanoma): 3.8 µM
